# Assay results: patent US20020051978A1, “Methods and compositions for the identification, assessment, prevention and therapy of human cancers” (priority 2000, published 2002)
# Several values for one entry are separate records, joined by “and”; a condition that tells them apart may be missing. Equal values may be shown once. Read-outs that look alike come from different tables or passages of the source.
# How the values were obtained:
# [1] = test system: 60 cancer cell lines (NCI 60 cancer cell line series); experiment: NCI-DTP in vitro cancer screen, sulforhodamine B (SRB) growth inhibition, 48 hour exposure; type: cell-based, human; design: key to sensitivity class Ovarian OVCAR-8 CL6005 / sensitivity class Ovarian SK-OV-3 CL6011 / sensitivity class Prostate DU-145 CL11003 / sensitivity class NSCLC NCI-H522 CL1003 / sensitivity class Ovarian IGROV1 CL6010 / sensitivity class Ovarian OVCAR-4 CL6002 / sensitivity class Prostate PC-3(I) CL11001 / sensitivity class Renal A498 CL9013 / sensitivity class Renal SN12C CL9008: sensitivity class: 1 = Low, 2 = Medium, 3 = High
# Outline: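 Sixty NCI-DTP cancer lines plated at line-specific densities, dosed on day 1 in duplicate with 5 concentrations at ten-fold intervals. After 48 h exposure, cell mass read by SRB staining; GI50 (50% growth inhibition) taken from dose-response curves and expressed as -log GI50.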
# [2] = test system: 60 cancer cell lines (NCI 60 cancer cell line series); settings: cited from earlier work
compound,measurement,setting,value
CC[C@@]1(O)C(=O)OCc2c1cc1n(c2=O)Cc2cc3c(CN(C)C)c(O)ccc3nc2-1 [Topotecan],"classification of cell line as Low(1), Medium(2) or High(3) sensitivity to compound",[1]; Breast HS-578T CL5006,1
same,"classification of cell line as Low(1), Medium(2) or High(3) sensitivity to compound",[1]; Breast MDA-MB-231 CL5005,1
same,"classification of cell line as Low(1), Medium(2) or High(3) sensitivity to compound",[1]; Breast MDA-MB-435 (CL5011),2
same,"classification of cell line as Low(1), Medium(2) or High(3) sensitivity to compound",[1]; Breast MDA-N CL5012,2
same,"classification of cell line as Low(1), Medium(2) or High(3) sensitivity to compound",[1]; Breast T-47D (CL5014),3
same,"classification of cell line as Low(1), Medium(2) or High(3) sensitivity to compound",[1]; CNS SF-268 CL12014,3
same,"classification of cell line as Low(1), Medium(2) or High(3) sensitivity to compound",[1]; CNS SF-539 CL12016,3
same,"classification of cell line as Low(1), Medium(2) or High(3) sensitivity to compound",[1]; CNS SNB-19 (CL12002),2
same,"classification of cell line as Low(1), Medium(2) or High(3) sensitivity to compound",[1]; CNS SNB-75(I) CL12005,2
same,"classification of cell line as Low(1), Medium(2) or High(3) sensitivity to compound",[1]; Colon COLO-250 CL4010,1
same,"classification of cell line as Low(1), Medium(2) or High(3) sensitivity to compound",[1]; Colon HCT-15 CL4015,1
same,"classification of cell line as Low(1), Medium(2) or High(3) sensitivity to compound",[1]; Colon HCT-116 (CL4003),2
same,"classification of cell line as Low(1), Medium(2) or High(3) sensitivity to compound",[1]; Colon HT29(I) CL4001,2
same,"classification of cell line as Low(1), Medium(2) or High(3) sensitivity to compound",[1]; Colon SW-620 (CL4009),2
same,"classification of cell line as Low(1), Medium(2) or High(3) sensitivity to compound",[1]; Leukemia CCRF-CEM(I) (CL7003),3
same,"classification of cell line as Low(1), Medium(2) or High(3) sensitivity to compound",[1]; Leukemia K562(I) CL7005,2
same,"classification of cell line as Low(1), Medium(2) or High(3) sensitivity to compound",[1]; Leukemia MOLT-4 (CL7006),3
same,"classification of cell line as Low(1), Medium(2) or High(3) sensitivity to compound",[1]; Leukemia RPMI-8226(I) (CL7010),2
same,"classification of cell line as Low(1), Medium(2) or High(3) sensitivity to compound",[1]; Melanoma LOX IMVI CL10001,3
same,"classification of cell line as Low(1), Medium(2) or High(3) sensitivity to compound",[1]; Melanoma MALME-3M CL10002,2
same,"classification of cell line as Low(1), Medium(2) or High(3) sensitivity to compound",[1]; Melanoma SK-MEL-2 (CL10005),1
same,"classification of cell line as Low(1), Medium(2) or High(3) sensitivity to compound",[1]; Melanoma SK-MEL-5 (CL10007),2
same,"classification of cell line as Low(1), Medium(2) or High(3) sensitivity to compound",[1]; Melanoma SK-MEL-28 (CL10008),1
same,"classification of cell line as Low(1), Medium(2) or High(3) sensitivity to compound",[1]; Melanoma UACC-257 (CL10021),2
same,"classification of cell line as Low(1), Medium(2) or High(3) sensitivity to compound",[1]; NSCLC A549/ATCC (CL1004),2
same,"classification of cell line as Low(1), Medium(2) or High(3) sensitivity to compound",[1]; NSCLC HOP-62 (CL1026),3
same,"classification of cell line as Low(1), Medium(2) or High(3) sensitivity to compound",[1]; NSCLC HOP-92 (CL1029),2
same,"classification of cell line as Low(1), Medium(2) or High(3) sensitivity to compound",[1]; NSCLC NCI-H226 CL1013,2
same,sensitivity class NSCLC NCI-H23(I) CL1001,"[1]; cell line NSCLC NCI-H23(I), CL1001",2
same,sensitivity class NSCLC NCI-H460 CL1021,"[1]; cell line NSCLC NCI-H460, CL1021",3
same,sensitivity class NSCLC NCI-H522 CL1003,"[1]; cell line NSCLC NCI-H522, CL1003",2
same,sensitivity class Ovarian OVCAR-4 CL6002,"[1]; cell line Ovarian OVCAR-4, CL6002",1
same,sensitivity class Ovarian OVCAR-5 CL6003,"[1]; cell line Ovarian OVCAR-5, CL6003",2
same,sensitivity class Ovarian OVCAR-8 CL6005,"[1]; cell line Ovarian OVCAR-8, CL6005",2
same,sensitivity class Ovarian SK-OV-3 CL6011,"[1]; cell line Ovarian SK-OV-3, CL6011",2
same,sensitivity class Prostate DU-145 CL11003,"[1]; cell line Prostate DU-145, CL11003",3
same,sensitivity class Prostate PC-3(I) CL11001,"[1]; cell line Prostate PC-3(I), CL11001",2
same,sensitivity class Renal 786-O CL9018,"[1]; cell line Renal 786-O, CL9018",3
same,sensitivity class Renal A498 CL9013,"[1]; cell line Renal A498, CL9013",2
same,sensitivity class Renal ACHN CL9023,"[1]; cell line Renal ACHN, CL9023",3
same,sensitivity class Renal CAKI-1 CL9015,"[1]; cell line Renal CAKI-1, CL9015",3
same,sensitivity class Renal RXF-393 CL9016,"[1]; cell line Renal RXF-393, CL9016",2
same,sensitivity class Renal TK10 CL9024,"[1]; cell line Renal TK10, CL9024",1
same,sensitivity class Renal UO-31 CL9004,"[1]; cell line Renal UO-31, CL9004",2
same,-Log (GI50),[2]; Breast MCF7(I) (CL5001),8.0 and 7.8
same,-Log (GI50),[2]; Breast T-47D (CL5014),8.0 and 7.7
same,-Log (GI50),[2]; CNS SF-268 CL12014,7.7
same,-Log (GI50),[2]; CNS SF-539 CL12016,7.7 and 7.8
same,-Log (GI50),[2]; CNS SNB-19 (CL12002),7.5 and 7.6
same,-Log (GI50),[2]; CNS U251(I) CL12009,7.5 and 7.8
same,-Log (GI50),[2]; Colon HCT-15 CL4015,6.2 and 6.3
same,-Log (GI50),[2]; Colon KM12 (CL4017),6.5 and 6.4
same,-Log (GI50),[2]; Leukemia CCRF-CEM(I) (CL7003),7.9
same,-Log (GI50),[2]; Leukemia MOLT-4 (CL7006),7.9
same,-Log (GI50),[2]; Melanoma LOX IMVI CL10001,7.7 and 7.8
same,-Log (GI50),[2]; Melanoma M14 (CL10014),7.5 and 7.8
same,-Log (GI50),[2]; Melanoma SK-MEL-2 (CL10005),5.7 and 6.0
same,-Log (GI50),[2]; Melanoma SK-MEL-5 (CL10007),7.2 and 7.5
same,-Log (GI50),[2]; Melanoma UACC-62 (CL10020),7.8 and 7.7
same,-Log (GI50),[2]; NCSLC NCI-H522 CL1003,7.3 and 7.5
same,-Log (GI50),[2]; NSCLC A549/ATCC (CL1004),7.0 and 7.3
same,-Log (GI50),[2]; NSCLC HOP-62 (CL1026),7.9
same,-Log (GI50),[2]; NSCLC NCI-H23(I) CL1001,7.4
same,-Log (GI50),[2]; NSCLC NCI-H460 CL1021,7.7
same,-Log (GI50),[2]; Ovarian IGROV1 CL6010,6.3 and 6.4
same,-Log (GI50),[2]; Ovarian SK-OV-3 CL6011,7.1 and 7.2
same,-Log (GI50),[2]; Prostate DU-145 CL11003,8.0 and 7.8
same,-Log (GI50),[2]; Renal A498 CL9013,6.7 and 7.0
same,-Log (GI50),[2]; Renal ACHN CL9023,7.7 and 7.8
same,-Log (GI50),[2]; Renal CAKI-1 CL9015,7.9 and 7.8
same,-Log (GI50),[2]; Renal SN12C CL9008,7.6 and 7.5
same,-Log (GI50),[2]; Renal TK10 CL9024,5.1 and 5.3
same,-Log (GI50),[2]; Renal UO-31 CL9004,7.0 and 7.2
